In PubChem BioAssay (NCI) one finds TGI data, which are given here for eight compounds.

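Where inhibition never reached the appropriate level, the endpoint shown equals the highest concentration tested. Otherwise, values were interpolated linearly from a five-concentration, 48-hour dose response in 96-well plates. Definition used: TGI = concentration required for complete inhibition of growth.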

Among the test systems are PC-3 prostate; MOLT-4 leukemia; NCI/ADR-RES ovarian; KM12 colon; SNB-19 CNS; CCRF-CEM leukemia; MDA-N; OVCAR-5 ovarian; MDA-MB-231 breast; SF-295 CNS; NCI-H23 lung; NCI-H226 lung; SR leukemia; HL-60(TB) leukemia; ACHN renal; MALME-3M melanoma; SK-OV-3 ovarian; HCC-2998 colon; OVCAR-4 ovarian; NCI-H522 lung.
Test in all cases: growth of human tumour cells (NCI), 48 h

On to `CCOC(=O)c1c(NC(=O)c2cccs2)sc2c1CCC2`, for which the TGI in the experiment with PC-3 prostate, with MOLT-4 leukemia, in the experiment on NCI/ADR-RES ovarian, in the experiment with KM12 colon, in the experiment on SNB-19 CNS and in the experiment with CCRF-CEM leukemia was more than 100 µM each time. Besides, the TGI in the experiment on MDA-N, with OVCAR-5 ovarian, in the experiment on MDA-MB-231 breast, in the experiment on SF-295 CNS, in the experiment with NCI-H23 lung and in the experiment on NCI-H226 lung was more than 100 µM in each case. The TGI in the experiment on SR leukemia, in the experiment on HL-60(TB) leukemia and in the experiment on ACHN renal was more than 100 µM throughout.

For `CCOC(=O)N(NC(=O)NC(C)C)c1ccccc1`, the TGI in the experiment with PC-3 prostate, with MOLT-4 leukemia, in the experiment with NCI/ADR-RES ovarian, in the experiment with KM12 colon, in the experiment on SNB-19 CNS and with CCRF-CEM leukemia was more than 100 µM each time. Besides, the TGI in the experiment on MDA-N, in the experiment with MALME-3M melanoma, in the experiment on OVCAR-5 ovarian, in the experiment with MDA-MB-231 breast, in the experiment with SF-295 CNS and in the experiment on NCI-H23 lung was more than 100 µM each time. For the same compound, the TGI in the experiment on SK-OV-3 ovarian, with NCI-H226 lung, in the experiment on HCC-2998 colon, in the experiment on SR leukemia, with HL-60(TB) leukemia and in the experiment with OVCAR-4 ovarian was more than 100 µM in each case. The compound also came in with a TGI with ACHN renal of more than 100 µM.

Turning to `Cc1cc(C)c2c(O)c(S(=O)(=O)c3ccc(Cl)cc3)c(=O)oc2c1`, the TGI with PC-3 prostate, in the experiment on NCI/ADR-RES ovarian, with KM12 colon, in the experiment with SNB-19 CNS, with CCRF-CEM leukemia and in the experiment with MDA-N was more than 100 µM in each case. Further, the TGI in the experiment with MALME-3M melanoma, in the experiment on OVCAR-5 ovarian, in the experiment with MDA-MB-231 breast, in the experiment on SF-295 CNS, in the experiment with NCI-H23 lung and with SK-OV-3 ovarian was more than 100 µM each time. Further, the TGI with NCI-H226 lung, in the experiment on SR leukemia, with HL-60(TB) leukemia and in the experiment on OVCAR-4 ovarian was more than 100 µM in each case.

For the compound `O=c1c2ccccc2[nH]c2c(Cl)cc(Cl)c(NC3CCCCC3)c12`, the TGI was determined as 60.1 µM in the experiment with PC-3 prostate; 86.9 µM in the experiment with MOLT-4 leukemia; 44 µM with NCI/ADR-RES ovarian; 32.4 µM with KM12 colon; 38.8 µM in the experiment with SNB-19 CNS; 79.1 µM in the experiment with MDA-N. Also, the TGI is 53.9 µM with OVCAR-5 ovarian; 74.3 µM in the experiment with MDA-MB-231 breast; more than 100 µM with SF-295 CNS; 36.8 µM with NCI-H23 lung; 44 µM in the experiment with NCI-H522 lung; more than 100 µM with SK-OV-3 ovarian. The TGI in the experiment with NCI-H226 lung was 44.4 µM; in the experiment on HCC-2998 colon, 89.9 µM; in the experiment with SR leukemia it was more than 100 µM; in the experiment on HL-60(TB) leukemia it was 43.9 µM; in the experiment on OVCAR-4 ovarian it was more than 100 µM; in the experiment with ACHN renal it was 37.7 µM.

As to `CC(C)(C)/C(=N\Nc1nc2ccccc2[nH]1)c1ccccn1`, the TGI in the experiment with PC-3 prostate, with MOLT-4 leukemia, with NCI/ADR-RES ovarian, in the experiment with KM12 colon, in the experiment with SNB-19 CNS and with CCRF-CEM leukemia was more than 100 µM each time. The TGI in the experiment on MDA-N is more than 100 µM; with MALME-3M melanoma it was 61.5 µM; in the experiment on MDA-MB-231 breast, more than 100 µM; in the experiment with NCI-H23 lung, more than 100 µM; in the experiment with NCI-H522 lung, more than 100 µM; with SK-OV-3 ovarian, more than 100 µM. In addition, the TGI with NCI-H226 lung, in the experiment with SR leukemia, in the experiment on OVCAR-4 ovarian and in the experiment on ACHN renal was more than 100 µM in each case.

For `OC1(c2ccc(Cl)cc2)C(N2CCCC2)c2ccccc2C2=NCCN21` (configuration not stated), the TGI is more than 100 µM with PC-3 prostate; 93.8 µM with MOLT-4 leukemia; 59.9 µM with NCI/ADR-RES ovarian; 60 µM in the experiment on KM12 colon; more than 100 µM in the experiment on SNB-19 CNS; more than 100 µM in the experiment on CCRF-CEM leukemia. The TGI in the experiment on MDA-N was 51.4 µM; with MALME-3M melanoma it was 36.9 µM; in the experiment on OVCAR-5 ovarian, more than 100 µM; in the experiment on MDA-MB-231 breast, more than 100 µM; in the experiment with SF-295 CNS, 30.9 µM; with NCI-H23 lung it was 92.7 µM. The TGI with SK-OV-3 ovarian was 57.6 µM; with SR leukemia it was 41.1 µM; with HL-60(TB) leukemia it was 50.7 µM; in the experiment on OVCAR-4 ovarian it was 87.9 µM; with ACHN renal it was more than 100 µM.

For `COc1ccc(C(=O)c2sc(N(C)C)nc2-c2ccccc2)cc1`, the TGI was more than 100 µM in the experiment with PC-3 prostate; more than 100 µM in the experiment on MOLT-4 leukemia; 49.8 µM with NCI/ADR-RES ovarian; 73 µM in the experiment with KM12 colon; more than 100 µM in the experiment with SNB-19 CNS; 65.2 µM with CCRF-CEM leukemia. The TGI is 53.8 µM in the experiment on MDA-N; more than 100 µM in the experiment with MALME-3M melanoma; more than 100 µM in the experiment on OVCAR-5 ovarian; more than 100 µM in the experiment with MDA-MB-231 breast; more than 100 µM in the experiment with NCI-H23 lung; 71.8 µM in the experiment on SK-OV-3 ovarian. In addition, the TGI is more than 100 µM in the experiment with NCI-H226 lung; 48.5 µM in the experiment on HCC-2998 colon; more than 100 µM in the experiment with SR leukemia; 40.9 µM in the experiment with HL-60(TB) leukemia; more than 100 µM in the experiment with OVCAR-4 ovarian; more than 100 µM in the experiment on ACHN renal.

Take `COC(=O)C1=C(O)C(C(=O)OC)[C@]2(O)[C@H](C(=O)OC)[C@H]1C[C@@H](c1ccc(OC)c(OC)c1)[C@H]2C(=O)OC` (some centres not stated): the TGI in the experiment on PC-3 prostate was more than 100 µM; with MOLT-4 leukemia it was 69.8 µM; in the experiment with NCI/ADR-RES ovarian it was 54.5 µM; in the experiment on KM12 colon, 54.5 µM; with SNB-19 CNS, 73.3 µM; with CCRF-CEM leukemia it was more than 100 µM. The TGI with MDA-N is more than 100 µM; in the experiment with OVCAR-5 ovarian, more than 100 µM; in the experiment with MDA-MB-231 breast, more than 100 µM; in the experiment on SF-295 CNS, 94.7 µM; in the experiment on NCI-H23 lung, more than 100 µM; with SK-OV-3 ovarian it was 68.2 µM. The TGI in the experiment on NCI-H226 lung was 29 µM; in the experiment with HCC-2998 colon it was 27.1 µM; with SR leukemia, 46.6 µM; with HL-60(TB) leukemia it was 62.9 µM; with OVCAR-4 ovarian, more than 100 µM; in the experiment on ACHN renal, more than 100 µM.
